Data published in PMC7321408, “One-Pot Multicomponent Synthesis and Bioevaluation of Tetrahydroquinoline Derivatives as Potential Antioxidants, α-Amylase Enzyme Inhibitors, Anti-Cancerous and Anti-Inflammatory Agents” (Molecules, 2020).
In brackets after ≈: the same amount, converted by molar mass. Several values for one entry are separate records, joined by “and”; a condition that tells them apart may be missing. Equal values may be shown once. Read-outs that look alike come from different tables or passages of the source.

Legend:
[1] = test system: Hep-2C cells; test: MTT assay against Hep-2C cells; format: cell-based, Human; conditions: Homo sapiens, Hep2C, read-out: IC50 (Mean ± SEM) Hep-2C Cells
Method: Hep-2C cell line experiments were performed in the Immunology Lab of the National Institute of Health (NIH), Islamabad, Pakistan. Human cervix carcinoma cells Hep-2C (ATCC HB-8065) were cultured in Dulbecco’s modified Eagle’s medium (DMEM), comprising 10% fetal calf serum (10% FCS) and supplemented with 2 mM L-glutamine, 100 U/mL penicillin, 100 µg/mL streptomycin and 1 mM Na pyruvate, at 37 °C in a humidified 5% CO2 incubator.
The tetrazolium dye 3-(4, 5-dimethyl thiazolyl-2)-2, 5-diphenyltetrazolium bromide (MTT) was used to assess the cytotoxic potential of the test compounds. In living cells, MTT is reduced into its insoluble purple product formazan, which is measured spectrophotometrically.
Hep-2C cells, in a density of 1 × 10^6 (> 90% cell viability), were cultured in a 96-well plate and treated with different concentrations of the test compounds for 24, 48 and 72 h. Ten microliters of MTT (1 mg per mL) were added per well followed by incubation for 4 h. Insoluble formazan crystals were dissolved by adding 100 µL of DMSO. Cells were then incubated for another 2 h. Absorbance was measured at 570 nm by a microplate reader. Untreated Hep-2C cells were taken as controls and DMSO as a negative. % cell viability = (abssample − absblank)/(abscontrol − absblank) × 100

[2] = DPPH free radical scavenging assay; conditions: mean ± SEM, n = 3; for IC50 (DPPH radical scavenging): concentration to scavenge 50% of the DPPH radicals
Method: The % free radical scavenging activity (%FRSA) of the synthetic compounds was evaluated by the discoloration of an unstable DPPH reagent to the stable yellow-colored 2,2-diphenyl-1-picrylhydrazine molecule by accepting one electron from a donor antioxidant; the mechanism is shown in Scheme 2.
The % FRSA (free radical scavenging activity) of the synthetic compounds was determined by using the method of Tai et al. with slight modifications. The antioxidant potential was determined by detecting the capacity of the synthetic compounds to quench the DPPH free radicals. The synthetic compounds were taken in a 96-well plate at three-fold concentrations of 200 µg/mL, 66.6 µg/mL, 22.2 µg/mL and 7.4 µg/mL. DPPH free radicals were added to entire wells to make up the volume up to 200 µL. DMSO and ascorbic acid were taken as negative and positive controls, respectively. The absorbance was taken at 630nm using a microplate reader (ELx800 BioTek). The percentage of scavenging activity was calculated by the given formula:% scavenging activity = (1 − Abs/Abc) × 100
Abs = sample’s absorbance; Abc = control’s absorbance.

[3] = target: α-amylase enzyme; test: α-Amylase enzyme inhibitory assay; format: biochemical
Method: An in vitro α-amylase enzyme inhibitory assay was performed by the standard protocol. Four milligrams per 1 mL of sample was prepared in DMSO. In each well of a 96-well plate, synthetic compounds were added to a final concentration of 200 µg/mL. To this, 15 μL phosphate buffer, […] α-amylase enzyme and 40 μL starch solution were added stepwise. The microplate was incubated at 50 °C for 30 min. […] The formula used to calculate the percent enzyme inhibition is:% Enzyme inhibition = [(As − An) ÷ (Ab − An] × 100
As = sample’s absorbance; An = negative’s absorbance; Ab = blank’s absorbance

[4] = MTT cytotoxicity against raw macrophages; format: cell-based, albino rats; conditions: albino, rat; for viability at 24 h, 1 µM / viability at 24 h, 10 µM / viability at 24 h, 50 µM / viability at 24 h, 100 µM: peritoneal macrophages (raw macrophages), raw macrophages, MTT, read-out: % Cell Viability; for IC50 at 24 h: primary peritoneal macrophages, mean ± SEM, n = 3
Method: The % cell viability of the synthetic library was evaluated in vitro by measuring the mitochondrial dehydrogenase activity (MTT test) on raw macrophages.
The cytotoxic potential was assessed by using an MTT 3-(4,5-dimethyl thiazole-2-yl)-2,5- diphenyl tetrazolium bromide assay. Briefly, macrophages were extracted from the peritoneal cavity of albino rats and plated at a density of 1 × 10^6 per well in a 96-well plate and incubated in a 5% CO2 incubator at 37 °C for 24 h. The cells were treated with various concentrations of the test compounds (100 µM, 50 µM, 10 µM and 1 µM) or vehicle alone. The test compounds were first dissolved in DMSO to make a 100 mM stock solution and then further dilutions were made from this stock solution. After 24 h of incubation, 20 µL of MTT (1 mg/mL in normal saline) was added into each well and incubated under the same conditions for 2 h. Mitochondrial succinate dehydrogenase converted MTT in live cells into purple formazan crystals. The formazan crystals were then solubilized in 100 µL DMSO, and the absorbance was measured at 570 nm. The % cell viability was calculated by the following formula; % cell viability = (abssample − absblank)/(abscontrol − absblank) × 100

[5] = test system: NO generated by LPS-induced macrophages; test: Nitric oxide assay (Griess) in LPS-induced macrophages; format: cell-based, murine; conditions: Mus musculus, Macrophage, 18 h, LPS 1 µg/mL, read-out: % NO Production (Mean ± SEM)
Method: A Griess reagent, a spectrophotometric determination of nitrite level, was carried out to measure the nitrite level in the conditioned medium of macrophages treated with lipopolysaccharide (LPS). Sodium nitrite (NaNO2) was used as a standard compound for the standard curve (Figure 8). The NO concentrations were obtained using the standard curve equation: y = 0.0083x + 0.0017, R^2 = 0.9999, where y is the absorbance at 540 nm and x is the NO concentration in µM. The inhibitory activity of the tested compounds towards NO generated by LPS-induced macrophages was obtained from the calculated value of x.
The anti-inflammatory effect of the synthesized compounds in murine macrophages was evaluated by using the Griess reaction method, described previously. In brief, 1 × 10^6 were plated in a 96-well plate and incubated in a 5% CO2 incubator at 37 °C for 24 h, pre-treated with different concentrations (100 µM, 50 µM, 10 µM and 1 µM) of synthetic compounds for another 2 h and challenged with LPS (1 µg/mL) for an additional 18 h. Equal volumes of Griess reagent (1% sulphanilamide in 50% phosphoric acid and 0.1% naphthyl ethylenediamine dihydrochloride in distilled water and vortexed) and culture medium were mixed and the absorbance was taken at 540 nm. Lipopolysaccharide (LPS) was taken as a blank and piroxicam was taken as a positive control. A t-test was applied to determine the significance of the results.

[6] = test system: brine shrimp nauplii; test: Brine shrimp lethality bioassay; format: in vivo; conditions: 24 h, n = 3
Method: Brine shrimp eggs were hatched in a shallow rectangular plastic dish and filled with artificial seawater, which was prepared with a commercial salt mixture. In a 96-well plate, 150 µL of artificial seawater was added and 10 nauplii were added into this. Test compounds (400, 200, 100 and 50 µg/mL) were added into each well and the final volume was made up by adding the artificial seawater. The well plate was left uncovered under a lamp. The number of surviving shrimps were counted and recorded after 24 h. The test was repeated in triplicate. […] The percentage mortality (%M) was also calculated by dividing the number of dead nauplii by the total number and then multiplied by 100.

[7] = Phosphomolybdenum-based total antioxidant capacity (TAC)
Method: In the presence of an antioxidant, the phosphomolybdate ion gets reduced and a green phosphate–molybdate complex is formed, which is analyzed spectrophotometrically.
The total antioxidant capacity was determined by using the phosphomolybdenum-based method. The method is based on the reduction of Mo (VI) to Mo (V), leading to the formation of a green-colored phosphate–molybdenum complex that gives absorption at 630 nm. In 96-well plates, 20 µL of the sample was added with 180 µL TAC reagents in it and incubated at 95 °C for 90 min in a water bath and cooled at room temperature. The results were calculated as µg AAE/mg.

[8] = Total reducing power (TRP) assay
Method: A TRP assay was carried out to evaluate the reducing potential of synthetic compounds. The method implicates reductones. These reductones are species with antioxidant potential that is believed to be due to their proton-donating capacity. […] The maximum value of reducing power was 104.7 ± 1.9 µg/AAE for SF5, followed by 103.18 ± 2.4 µg/AAE for SF7 and 84.57 ± 1.9 µg/AAE for SF12 (Figure 3 and Figure 4 (standard curve)).
The assay is based on the reduction of Fe^+3 to Fe^+2. The method described by Khan et al. was used with slight modifications. One hundred microliters of test samples (4 mg/mL DMSO) were taken in an Eppendrof tube and 200 μL of phosphate buffer (0.2 mol/L, pH 6.6) and 250 µL of 1% potassium ferricyanide (K3Fe CN)6) were added. This was allowed to incubate at 50 °C for 20 min. Later on, 200 μL of 10% trichloroacetic acid (TCA) was added to the mixture. The mixture was centrifuged at 3000 rpm at room temperature for 10 min. After centrifugation, 150 µL of supernatant were transferred to microplate with FeCl3 (50 μL, 0.1%) and the absorbance was taken at 630 nm. The results were calculated as µg AAE/mg.

SMILES	% DPPH Scavenging Activity ([2]; 7.4 µg/mL) [%]	% DPPH Scavenging Activity ([2]; 22.22 µg/mL) [%]	% DPPH Scavenging Activity ([2]; 66.66 µg/mL) [%]	% DPPH Scavenging Activity ([2]; 200 µg/mL) [%]	IC50 (DPPH radical scavenging) [2] [µg/mL]	IC50 (α-amylase) [3] [µg/mL]	viability at 24 h, 1 µM [4] [%]	viability at 24 h, 10 µM [4] [%]	viability at 24 h, 50 µM [4] [%]	viability at 24 h, 100 µM [4] [%]	IC50 at 24 h [4] [µM]	activity at 1 µM [5] [%]	activity at 10 µM [5] [%]	activity at 50 µM [5] [%]	activity at 100 µM [5] [%]	LD50 ± SEM (brine shrimp lethality) [6] [µg/mL]	Total antioxidant capacity (TAC) [7] [µg/AAE]	Total reducing power (TRP) [8]	also measured
Clc1cccc(NCN2CCCc3ccccc32)c1 [SF8, 3-Chloro-N-((3,4-dihydroquinolin-1(2H)-yl)methyl) aniline]	27.98 ± 0.24	50.17 ± 0.32	52.12 ± 0.36	62.35 ± 0.14	29.19 ± 0.25 (≈ 107 µM)	27.39 ± 1.43 (≈ 100 µM)	97 ± 1.04	83 ± 0.78	68 ± 0.79	52 ± 1	21.2 ± 0.33	39.4 ± 0.48	29.4 ± 0.44	24.1 ± 0.41	15 ± 0.33	123.4 ± 1.87	–	–	IC50 ([1]; 24 h): 20.2 ± 1.07 µM; IC50 ([1]; 48 h): 15.7 ± 1.08 µM; IC50 ([1]; 72 h): 11.9 ± 1.04 µM
Brc1ccc(NCN2CCCc3ccccc32)cc1 [SF9, 4-Bromo-N-((3,4-dihydroquinolin-1(2H)-yl)methyl) aniline]	7.64 ± 0.26	19.35 ± 0.11	50.28 ± 0.22	67.46 ± 0.14	50.76 ± 0.37 (≈ 160 µM)	18.55 ± 0.89 (≈ 58.5 µM)	98 ± 0.87	91 ± 0.91	84 ± 1.21	82 ± 0.96	14.2 ± 0.26	66.97 ± 0.61	58.54 ± 0.55	55.6 ± 0.51	49.07 ± 0.45	139 ± 0.87	179.76 ± 1.6231	–	% inhibition of α-amylase enzyme ([3]; 200 µg/mL): 89.93% and 93%
COc1ccc(NCN2CCCc3ccccc32)cc1 [SF12, N-((3,4-dihydroquinolin-1(2H)-yl)methyl)-4-methoxyaniline]	11.24 ± 0.11	31.80 ± 0.42	54.10 ± 0.17	64.20 ± 0.31	39.33 ± 0.28 (≈ 147 µM)	–	87 ± 0.82	84 ± 0.87	57 ± 0.89	41 ± 0.86	35.1 ± 0.5	49.7 ± 0.61	32.3 ± 0.59	26.5 ± 0.578	23.2 ± 0.55	128 ± 1.87	191.19 ± 1.1231	84.57 ± 1.9 µg/AAE	–
CC(=O)N(CN1CCCc2ccccc21)c1ccccc1 [SF10, N-((3,4-dihydroquinolin-1(2H)-yl)methyl)-N-phenylacetamide]	23.45 ± 0.28	31.89 ± 0.21	40.77 ± 0.31	49.73 ± 0.19	47.81 ± 0.27 (≈ 171 µM)	–	100 ± 0.88	95 ± 0.93	80 ± 1.24	76 ± 1.2	24.8 ± 0.269	62.4 ± 0.65	58.5 ± 0.59	42.5 ± 0.54	33.84 ± 0.33	196.1 ± 1.12	–	no activity	–
